Source: patent US8680272B2, “3-arylethynyl substituted quinazolinone compounds” (Council of Scientific & Industrial Research, priority 2011, dated 2014)

Tests used:
[1] = tested on: UACC-257; assay: Anticancer activity, SRB assay, melanoma cell line UACC-257; type: cell-based; conditions: Homo sapiens; Melanoma UACC-257; 48 h continuous drug exposure; read-out: Growth Inhibition GI50
Procedure: (§1) Some of biological activity studies were carried out at the National Cancer Institute (NCI), Maryland, USA.
(§2) The compounds were evaluated for anticancer activity against sixty human cancer cells derived from nine cancer types (leukemia cell line, non-small-cell lung cell line, colon cell line, CNS cell line, melanoma cell line, ovarian cell line, prostate cell line, renal cell line and breast cancer cell line) as shown in Table 1. For each compound, dose response curves for each cell line were measured at a minimum of five concentrations at 10 fold dilutions. A protocol of 48 h continuous drug exposure was used and a sulforhodamine B (SRB) protein assay was used to estimate cell viability or growth.

[2] = tested on: MDA-MB-231/ATCC; assay: Anticancer activity, SRB assay, breast cell line MDA-MB-231/ATCC; type: cell-based; conditions: Homo sapiens; Breast MDA-MB-231/ATCC; 48 h continuous drug exposure; read-out: Growth Inhibition GI50
Procedure: as §1, §2

[3] = Anticancer activity, SRB assay, melanoma panel; type: cell-based, human; conditions: Homo sapiens; nine melanoma cancer cell line; exposure period of at least 48 h; read-out: GI50 (range over the panel)
Procedure: as §1, §2

[4] = tested on: nine melanoma cancer cell line (LOX IMVI, MALME-3M, M14, MDA-MB-435, SK-MEL-2, SK-MEL-28, SK-MEL-5, UACC-257 and UACC-62); assay: Anticancer activity, SRB assay, melanoma panel; type: cell-based, human; conditions: Melanoma; for mean graph midpoint values (MG_MID) of log10 TGI (Log10TGI50): log value of concentration of the compound resulting in total inhibition of net cell growth; for mean graph midpoint values (MG_MID) of Log10LC50: log value of the concentration of compounds leading to 50% net cell death; for mean graph midpoint values (MG_MID) of Log10GI50: log values of concentration in mol/L causing 50% inhibition of net cell growth
Procedure: as §1, §2

[5] = tested on: SK-MEL-2; assay: Anticancer activity, SRB assay, melanoma cell line SK-MEL-2; type: cell-based, human; conditions: Melanoma SK-MEL-2, 48 h continuous drug exposure, —^b means GI50 values not attained at the concentrations used; for GI50: Homo sapiens, read-out: Growth Inhibition GI50
Procedure: as §1, §2

[6] = tested on: SF-268; assay: Anticancer activity, SRB assay, CNS cell line SF-268; type: cell-based, human; conditions: CNS SF-268, 48 h continuous drug exposure, —^b means GI50 values not attained at the concentrations used; for GI50: Homo sapiens, read-out: Growth Inhibition GI50
Procedure: as §1, §2

[7] = tested on: six leukemia cancer cell lines (CCRF-CEM, HL-60, K-562, MOLT-4, SR and RPMI-8226); assay: Anticancer activity, SRB assay, leukemia panel; type: cell-based, human; conditions: for GI50: Homo sapiens, six leukemia cancer cell lines, exposure period of at least 48 h, read-out: GI50 (range over the panel); for mean graph midpoint values (MG_MID) of log10 TGI (Log10TGI50) / mean graph midpoint values (MG_MID) of Log10LC50 / mean graph midpoint values (MG_MID) of Log10GI50: Leukemia; for mean graph midpoint values (MG_MID) of log10 TGI (Log10TGI50): log value of concentration of the compound resulting in total inhibition of net cell growth; for mean graph midpoint values (MG_MID) of Log10LC50: log value of the concentration of compounds leading to 50% net cell death; for mean graph midpoint values (MG_MID) of Log10GI50: log values of concentration in mol/L causing 50% inhibition of net cell growth
Procedure: as §1, §2

[8] = tested on: MOLT-4; assay: Anticancer activity, SRB assay, leukemia cell line MOLT-4; type: cell-based; conditions: Homo sapiens; Leukemia MOLT-4; 48 h continuous drug exposure; read-out: Growth Inhibition GI50
Procedure: as §1, §2

[9] = tested on: MDA-MB-435; assay: Anticancer activity, SRB assay, melanoma cell line MDA-MB-435; type: cell-based, human; conditions: Melanoma MDA-MB-435, 48 h continuous drug exposure, —^b means GI50 values not attained at the concentrations used; for GI50: Homo sapiens, read-out: Growth Inhibition GI50
Procedure: as §1, §2

[10] = tested on: SNB-19; assay: Anticancer activity, SRB assay, CNS cell line SNB-19; type: cell-based, human; conditions: CNS SNB-19, 48 h continuous drug exposure, —^b means GI50 values not attained at the concentrations used; for GI50: Homo sapiens, read-out: Growth Inhibition GI50
Procedure: as §1, §2

[11] = tested on: SW-620; assay: Anticancer activity, SRB assay, colon cell line SW-620; type: cell-based; conditions: Homo sapiens; Colon SW-620; 48 h continuous drug exposure; read-out: Growth Inhibition GI50
Procedure: as §1, §2

[12] = tested on: CAKI-1; assay: Anticancer activity, SRB assay, renal cell line CAKI-1; type: cell-based; conditions: Homo sapiens; Renal CAKI-1; 48 h continuous drug exposure; read-out: Growth Inhibition GI50
Procedure: as §1, §2

[13] = tested on: OVCAR-4; assay: Anticancer activity, SRB assay, ovarian cell line OVCAR-4; type: cell-based, human; conditions: Ovarian OVCAR-4, 48 h continuous drug exposure, —^b means GI50 values not attained at the concentrations used; for GI50: Homo sapiens, read-out: Growth Inhibition GI50
Procedure: as §1, §2

[14] = tested on: KM12; assay: Anticancer activity, SRB assay, colon cell line KM12; type: cell-based; conditions: Homo sapiens, 48 h continuous drug exposure, read-out: Growth Inhibition GI50
Procedure: as §1, §2

[15] = tested on: seven colon cancer cell line (COLO 205, HCC-2998, HCT-116, HCT-15, HT29, KM12 and SW-620); assay: Anticancer activity, SRB assay, colon panel; type: cell-based, human; conditions: for mean graph midpoint values (MG_MID) of log10 TGI (Log10TGI50) / mean graph midpoint values (MG_MID) of Log10LC50 / mean graph midpoint values (MG_MID) of Log10GI50: Colon; for mean graph midpoint values (MG_MID) of log10 TGI (Log10TGI50): log value of concentration of the compound resulting in total inhibition of net cell growth; for mean graph midpoint values (MG_MID) of Log10LC50: log value of the concentration of compounds leading to 50% net cell death; for mean graph midpoint values (MG_MID) of Log10GI50: log values of concentration in mol/L causing 50% inhibition of net cell growth; for GI50: Homo sapiens, seven colon cancer cell line, exposure period of at least 48 h, read-out: GI50 (range over the panel)
Procedure: as §1, §2

[16] = tested on: NCI-H226; assay: Anticancer activity, SRB assay, non-small lung cell line NCI-H226; type: cell-based, human; conditions: Non-small lung NCl-H226, 48 h continuous drug exposure, —^b means GI50 values not attained at the concentrations used; for GI50: Homo sapiens, NCI-H226, read-out: Growth Inhibition GI50
Procedure: as §1, §2

[17] = tested on: HCT-15; assay: Anticancer activity, SRB assay, colon cell line HCT-15; type: cell-based; conditions: Homo sapiens; Colon HCT-15; 48 h continuous drug exposure; read-out: Growth Inhibition GI50
Procedure: as §1, §2

[18] = tested on: A549/ATCC; assay: Anticancer activity, SRB assay, non-small lung cell line A549/ATCC; type: cell-based, human; conditions: 48 h continuous drug exposure, —^b means GI50 values not attained at the concentrations used; for GI50: Homo sapiens, read-out: Growth Inhibition GI50
Procedure: as §1, §2

[19] = tested on: HCT-116; assay: Anticancer activity, SRB assay, colon cell line HCT-116; type: cell-based; conditions: Homo sapiens; Colon HCT-116; 48 h continuous drug exposure; read-out: Growth Inhibition GI50
Procedure: as §1, §2

[20] = tested on: SK-MEL-28; assay: Anticancer activity, SRB assay, melanoma cell line SK-MEL-28; type: cell-based, human; conditions: Melanoma SK-MEL-28, 48 h continuous drug exposure, —^b means GI50 values not attained at the concentrations used; for GI50: Homo sapiens, read-out: Growth Inhibition GI50
Procedure: as §1, §2

[21] = tested on: 786-0; assay: Anticancer activity, SRB assay, renal cell line 786-0; type: cell-based, human; conditions: Renal 786-0, 48 h continuous drug exposure, —^b means GI50 values not attained at the concentrations used; for GI50: Homo sapiens, read-out: Growth Inhibition GI50
Procedure: as §1, §2

[22] = tested on: TK-10; assay: Anticancer activity, SRB assay, renal cell line TK-10; type: cell-based, human; conditions: Renal TK-10, 48 h continuous drug exposure, —^b means GI50 values not attained at the concentrations used; for GI50: Homo sapiens, read-out: Growth Inhibition GI50
Procedure: as §1, §2

[23] = tested on: MDA-MB-468; assay: Anticancer activity, SRB assay, breast cell line MDA-MB-468; type: cell-based; conditions: Homo sapiens; Breast MDA-MB-468; 48 h continuous drug exposure; read-out: Growth Inhibition GI50
Procedure: as §1, §2

[24] = tested on: SK-OV-3; assay: Anticancer activity, SRB assay, ovarian cell line SK-OV-3; type: cell-based, human; conditions: Ovarian SK-OV-3, 48 h continuous drug exposure, —^b means GI50 values not attained at the concentrations used; for GI50: Homo sapiens, read-out: Growth Inhibition GI50
Procedure: as §1, §2

[25] = tested on: HS 578T; assay: Anticancer activity, SRB assay, breast cell line HS 578T; type: cell-based, human; conditions: Breast HS 578T, 48 h continuous drug exposure, —^b means GI50 values not attained at the concentrations used; for GI50: Homo sapiens, read-out: Growth Inhibition GI50
Procedure: as §1, §2

[26] = tested on: UO-31; assay: Anticancer activity, SRB assay, renal cell line UO-31; type: cell-based, human; conditions: Renal UO-31, 48 h continuous drug exposure, —^b means GI50 values not attained at the concentrations used; for GI50: Homo sapiens, read-out: Growth Inhibition GI50
Procedure: as §1, §2

SMILES | GI50 [1] [nM] | GI50 [2] [nM] | GI50 [3] [nM] | mean graph midpoint values (MG_MID) of log10 TGI (Log10TGI50) [4] | mean graph midpoint values (MG_MID) of Log10LC50 [4] | mean graph midpoint values (MG_MID) of Log10GI50 [4] [mol/L] | GI50 [7] [nM] | mean graph midpoint values (MG_MID) of log10 TGI (Log10TGI50) [7] | mean graph midpoint values (MG_MID) of Log10LC50 [7] | mean graph midpoint values (MG_MID) of Log10GI50 [7] [mol/L] | GI50 [8] [nM] | GI50 [11] [nM] | GI50 [12] [nM] | GI50 [14] [nM] | mean graph midpoint values (MG_MID) of log10 TGI (Log10TGI50) [15] | mean graph midpoint values (MG_MID) of Log10LC50 [15] | mean graph midpoint values (MG_MID) of Log10GI50 [15] [mol/L] | GI50 [15] [nM] | GI50 [17] [nM] | GI50 [19] [nM] | also measured
Cc1cc(C#Cc2ccccc2)ccc1-n1c(/C=C/c2ccc(O)cc2)nc2ccccc2c1=O [Compound 4b, (E)-2-(4-Hydroxystyryl)-3-(2-methyl-4-(phenylethynyl)phenyl)quinazolin-4(3H)-one] | 4180 | 3890 | 1770 to 4540 | −4.79 | −4.16 | −5.54 | 1660 to 3260 | −4.49 | >−4.00 | −5.64 | 2360 | 4080 | 3300 | 3240 | −4.83 | −4.15 | −5.55 | 1990 to 4080 | 2500 | 2660 | GI50 [5]: 1930 nM; GI50 [6]: 4560 nM; GI50 [9]: 2820 nM; GI50 [10]: 6910 nM; GI50 [13]: 3170 nM; GI50 [16]: 3990 nM; GI50 [18]: 3140 nM; GI50 [20]: 4540 nM; GI50 [21]: 3650 nM; GI50 [22]: 2620 nM; GI50 [23]: 3780 nM; GI50 [24]: 9910 nM; GI50 [25]: 2480 nM; GI50 [26]: 2060 nM
Cc1cc(C#Cc2ccccc2)ccc1-n1c(/C=C/c2cc(O)ccc2O)nc2ccccc2c1=O [Compound 4c, (E)-2-(2,5-Dihydroxystyryl)-3-(2-methyl-4-(phenylethynyl)phenyl)quinazolin-4(3H)-one] | 1560 | 1560 | 1350 to 1670 | −5.52 | −5.22 | −5.83 | 634 to 1540 | −5.38 | −4.40 | −5.94 | 1140 | 1710 | 2150 | 1650 | −5.53 | −5.23 | −5.83 | 1030 to 1950 | 1030 | 1460 | GI50 [5]: 1400 nM; GI50 [6]: 1310 nM; GI50 [9]: 1670 nM; GI50 [10]: 1620 nM; GI50 [13]: 2400 nM; GI50 [16]: 1520 nM; GI50 [18]: 1280 nM; GI50 [20]: 1530 nM; GI50 [21]: 1740 nM; GI50 [22]: 2030 nM; GI50 [23]: 1610 nM; GI50 [24]: 1830 nM; GI50 [25]: 1540 nM; GI50 [26]: 1160 nM
COc1ccc2cc(C#Cc3ccc(-n4c(/C=C/c5cc(OC)c(OC)c(OC)c5)nc5ccccc5c4=O)c(C)c3)ccc2c1 [Compound 6l, (E)-3-(4-((6-Methoxynaphthalen-2-yl)ethynyl)-2-methylphenyl)-2-(3,4,5-trimethoxystyryl)quinazolin-4(3H)-one] | 6240 | 37000 | 1850 to 42600 | >−4.00 | >−4.00 | −4.79 | 395 to 4660 | >−4.00 | >−4.00 | −5.67 | 4660 | 17200 | 4910 | 4300 | >−4.00 | >−4.00 | −5.16 | 1220 to 17200 | 1220 | 3530 | Growth Inhibition GI50 [5]: —^b; Growth Inhibition GI50 [6]: —^b; Growth Inhibition GI50 [9]: —^b; Growth Inhibition GI50 [10]: —^b; Growth Inhibition GI50 [13]: —^b; Growth Inhibition GI50 [16]: —^b; Growth Inhibition GI50 [18]: —^b; Growth Inhibition GI50 [20]: —^b; Growth Inhibition GI50 [21]: —^b; Growth Inhibition GI50 [22]: —^b; GI50 [23]: 3800 nM; Growth Inhibition GI50 [24]: —^b; Growth Inhibition GI50 [25]: —^b; Growth Inhibition GI50 [26]: —^b
